Results taken from patent publication US20250129078A1, “ERBB2 INHIBITORS” (Cogent Biosciences, Inc., priority 2023, published 2025).
Where a name gives a salt, the structure may show the parent alone.

Experiments:
EGFR wild type = EGFR wild type (Homo sapiens (Human), UniProt P00533); assay: ErbB cellular phosphorylation assay (phospho-EGFR ELISA), HEK-293 cells expressing EGFR wild type, EGF stimulated; assay type: cell-based; conditions: 1 h treatment
Description: HEK-293 cells were engineered to constitutively express ErbB2 mutant L755S or EGFR wild type (constructs obtained from GenScript, Piscataway, NJ). Cells were seeded in poly-D-lysine coated, 96-well plates at a density of 50,000 cells/well in complete medium (DMEM supplemented with 10% fetal bovine serum and G418) and incubated for 24 h at 37° C., 5% CO2 prior to treatment. Cells were treated with compound using three-fold dilutions at final concentrations ranging from […] for 1 h at 37° C., 5% CO2. EGFR-WT cells were stimulated with 500 ng/mL recombinant human EGF (R&D Systems, 236-EG) for an additional 5 min. After compound incubation, medium was removed from the plate, and cells were lysed in buffer containing protease and phosphatase inhibitors ([…]). Cell lysates were analyzed by enzyme-linked immunosorbent assay (ELISA). The ELISAs were performed to measure phosphorylated ErbB2 or phosphorylated EGFR levels, respectively (R&D Systems, DYC-1768, Human Phospho-ErbB2 DuoSet ELISA; DYC1095, Human Phospho-EGFR DuoSet IC ELISA) according to the manufacturer's instructions. Absorbance was measured at 450 nm using a BioTek Cytation 5 plate reader (Agilent, Santa Clara, CA) and IC50 values were calculated using a 4-parameter fit.

EGFR WT = EGFR WT (Homo sapiens (Human), UniProt P00533); assay: ErbB enzyme assay (CisBio HTRF-KinEASE-TK), EGFR WT; assay type: biochemical; conditions: ATP at Km (25 μM), 1 h incubation
EGFR WT, sequence (P00533 25-1210): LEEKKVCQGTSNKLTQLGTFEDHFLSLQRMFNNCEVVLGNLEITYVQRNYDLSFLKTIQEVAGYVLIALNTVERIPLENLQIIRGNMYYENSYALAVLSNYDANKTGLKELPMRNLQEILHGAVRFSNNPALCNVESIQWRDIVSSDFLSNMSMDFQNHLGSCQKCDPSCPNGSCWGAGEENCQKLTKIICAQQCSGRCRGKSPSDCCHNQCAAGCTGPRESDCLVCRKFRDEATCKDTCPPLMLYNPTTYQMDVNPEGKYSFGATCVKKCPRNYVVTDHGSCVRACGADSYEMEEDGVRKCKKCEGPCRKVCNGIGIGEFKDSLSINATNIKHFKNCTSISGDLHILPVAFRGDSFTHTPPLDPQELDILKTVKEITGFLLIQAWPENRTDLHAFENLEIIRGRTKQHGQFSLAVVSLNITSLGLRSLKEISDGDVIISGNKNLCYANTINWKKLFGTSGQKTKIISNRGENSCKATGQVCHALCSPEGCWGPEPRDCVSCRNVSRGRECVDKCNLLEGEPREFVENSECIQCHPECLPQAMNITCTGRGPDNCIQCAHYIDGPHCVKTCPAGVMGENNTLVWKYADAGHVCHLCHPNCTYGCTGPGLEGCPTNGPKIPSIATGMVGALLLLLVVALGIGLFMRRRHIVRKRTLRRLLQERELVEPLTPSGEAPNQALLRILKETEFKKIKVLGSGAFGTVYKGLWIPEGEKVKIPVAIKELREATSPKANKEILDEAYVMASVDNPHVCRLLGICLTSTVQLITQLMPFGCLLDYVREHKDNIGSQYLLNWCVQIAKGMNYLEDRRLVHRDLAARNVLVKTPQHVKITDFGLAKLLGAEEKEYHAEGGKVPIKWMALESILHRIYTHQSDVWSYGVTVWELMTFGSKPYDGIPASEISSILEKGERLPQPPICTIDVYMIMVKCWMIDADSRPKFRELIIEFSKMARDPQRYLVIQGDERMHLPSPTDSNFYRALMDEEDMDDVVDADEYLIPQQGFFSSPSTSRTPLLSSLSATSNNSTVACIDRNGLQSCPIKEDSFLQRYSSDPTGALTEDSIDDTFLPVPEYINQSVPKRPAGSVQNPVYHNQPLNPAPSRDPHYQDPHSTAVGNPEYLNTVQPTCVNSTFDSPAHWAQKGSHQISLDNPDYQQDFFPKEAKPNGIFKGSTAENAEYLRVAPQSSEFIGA
How it was run: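 Three-fold DMSO serial dilutions were added to kinase reactions and incubated 1 h at room temperature. Quench used 62.5 nM Sa-XL665 plus 0.25×TK-Ab-Cryptate in detection buffer, followed by another 1 h. Substrate phosphorylation was then measured by dual-wavelength HTRF.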

ErbB2 V777L = ErbB2 V777L (Homo sapiens (Human), UniProt P04626, V777L); assay: ErbB enzyme assay (CisBio HTRF-KinEASE-TK), ErbB2 V777L; assay type: biochemical
ErbB2 V777L, sequence (P04626 23-1255 V777L): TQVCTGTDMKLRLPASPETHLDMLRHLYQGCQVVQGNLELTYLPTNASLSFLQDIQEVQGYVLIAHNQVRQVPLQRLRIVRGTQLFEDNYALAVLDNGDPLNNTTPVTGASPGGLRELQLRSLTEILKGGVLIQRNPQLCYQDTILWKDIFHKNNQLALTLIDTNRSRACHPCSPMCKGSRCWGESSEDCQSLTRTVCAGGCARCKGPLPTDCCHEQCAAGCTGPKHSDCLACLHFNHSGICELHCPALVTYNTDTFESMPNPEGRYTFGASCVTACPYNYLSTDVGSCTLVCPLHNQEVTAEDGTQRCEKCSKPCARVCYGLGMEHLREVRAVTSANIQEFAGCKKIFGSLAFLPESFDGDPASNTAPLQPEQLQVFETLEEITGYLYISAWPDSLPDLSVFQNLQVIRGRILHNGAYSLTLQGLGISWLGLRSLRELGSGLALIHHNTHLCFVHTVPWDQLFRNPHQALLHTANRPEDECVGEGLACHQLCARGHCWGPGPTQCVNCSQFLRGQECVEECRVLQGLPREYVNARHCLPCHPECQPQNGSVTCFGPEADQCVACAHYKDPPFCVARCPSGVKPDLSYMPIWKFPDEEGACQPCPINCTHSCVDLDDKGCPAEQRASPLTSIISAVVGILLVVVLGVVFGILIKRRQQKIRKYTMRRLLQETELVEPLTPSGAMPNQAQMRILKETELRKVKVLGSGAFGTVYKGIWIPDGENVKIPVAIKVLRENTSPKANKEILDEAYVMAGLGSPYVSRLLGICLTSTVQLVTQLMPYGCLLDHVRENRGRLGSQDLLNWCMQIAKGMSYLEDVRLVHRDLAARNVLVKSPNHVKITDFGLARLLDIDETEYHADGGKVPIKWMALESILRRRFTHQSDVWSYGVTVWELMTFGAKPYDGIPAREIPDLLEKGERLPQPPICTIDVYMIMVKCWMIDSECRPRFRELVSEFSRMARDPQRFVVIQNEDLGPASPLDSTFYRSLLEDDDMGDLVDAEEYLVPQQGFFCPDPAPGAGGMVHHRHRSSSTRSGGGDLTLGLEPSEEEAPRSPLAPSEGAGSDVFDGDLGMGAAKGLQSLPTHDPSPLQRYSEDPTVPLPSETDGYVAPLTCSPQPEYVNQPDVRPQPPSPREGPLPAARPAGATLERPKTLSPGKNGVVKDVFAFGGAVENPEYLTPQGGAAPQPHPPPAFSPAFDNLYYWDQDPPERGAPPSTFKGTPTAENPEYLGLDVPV
How it was run: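 HTRF KinEASE-TK tyrosine-kinase read-out of substrate phosphorylation after a final 1 h at ambient temperature, from the 655/620 nm emission ratio.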

EGFR wild type, sequence (P00533 25-1210): as the sequence (P00533 25-1210) above

Structure (SMILES) | IC50 (EGFR wild type) | IC50 (EGFR WT) | IC50 (ErbB2 V777L)
C=CC(=O)N1CCN(c2ncc3ncnc(Nc4ccc(Oc5ccc6c(c5)nnn6C)c(C)c4)c3n2)C[C@@H]1CO [Compound 25, (R)-1-(2-(hydroxymethyl)-4-(8-((3-methyl-4-((1-methyl-1H-benzo[d][1,2,3]triazol-5-yl)oxy)phenyl)amino)pyrimido[5,4-d]pyrimidin-2-y1)piperazin-1-yl)prop-2-en-1-one] | ≥ 5000 nM | 100 to 500 nM | 
C=CC(=O)N1CCN(c2ncc3ncnc(Nc4cc(C)c(Oc5ccc6c(c5)ncn6C)cc4OC)c3n2)CC1 [Compound 11, 1-(4-(8-((2-methoxy-5-methyl-4-((1-methyl-1H-benzo[d]imidazol-5-yl)oxy)phenyl)amino)pyrimido[5,4-d]pyrimidin-2-yl)piperazin-1-yl)prop-2-en-1-one 2,2,2-trifluoroacetate] | ≥ 5000 nM | 100 to 500 nM | 
C=CC(=O)N1CC=C(c2ccc3ncnc(Nc4ccc(Oc5ccc6c(c5)nnn6C)c(C)c4)c3n2)CC1 [Compound 109, 1-(4-(4-((3-methyl-4-((1-methyl-1H-benzo[d][1,2,3]triazol-5-yl)oxy)phenyl)amino)pyrido[3,2-d]pyrimidin-6-yl)-3,6-dihydropyridin-1(2H)-yl)prop-2-en-1-one trifluoroacetate] | ≥ 5000 nM | 100 to 500 nM | 
C=CC(=O)N1CCN(c2ccc3ncnc(Nc4ccc(Oc5ccc6c(c5)nnn6C)c(C)c4)c3n2)[C@@H](C)C1 [Compound 90, (S)-1-(3-methyl-4-(4-((3-methyl-4-((1-methyl-H-benzo[d][1,2,3]triazol-5-yl)oxy)phenyl)amino)pyrido[3,2-d]pyrimidin-6-yl)piperazin-1-yl)prop-2-en-1-one 2,2,2-trifluoroacetate] | ≥ 5000 nM | 100 to 500 nM | 
C=CC(=O)N1C2CCC1CN(c1ccc3ncnc(Nc4ccc(Oc5ccc6c(c5)nnn6C)c(C)c4)c3n1)C2 [Compound 70, 1-(3-(4-((3-methyl-4-((1-methyl-1H-benzo[d][1,2,3]triazol-5-yl)oxy)phenyl)amino)pyrido[3,2-d]pyrimidin-6-yl)-3,8-diazabicyclo[3.2.1]octan-8-yl)prop-2-en-1-one] | 1000 to 5000 nM | 100 to 500 nM | 
C=CC(=O)N1CCN(c2ncc3ncnc(Nc4ccc(Oc5ccc6c(c5)nnn6C)c(C)c4)c3n2)[C@H](C)C1 [Compound 17, (R)-1-(3-methyl-4-(8-((3-methyl-4-((1-methyl-1H-benzo[d][1,2,3]triazol-5-yl)oxy)phenyl)amino)pyrimido[5,4-d]pyrimidin-2-yl)piperazin-1-yl)prop-2-en-1-one] |  | 500 to 1000 nM | 100 to 500 nM
C=CC(=O)N1CC=C(c2ncc3ncnc(Nc4ccc(Oc5ccn6ncnc6c5)c(C)c4F)c3n2)C[C@@H]1C [Compound 404, (S)-1-(4-(8-((4-([1,2,4]triazolo[1,5-a]pyridin-7-yloxy)-2-fluoro-3-methylphenyl)amino)pyrimido[5,4-d]pyrimidin-2-yl)-2-methyl-3,6-dihydropyridin-1(2H)-yl)prop-2-en-1-one] |  | 100 to 500 nM | 100 to 500 nM
C=CC(=O)N1CCCN(c2ccc3ncnc(Nc4ccc(Oc5ccn6ncnc6c5)c(C)c4)c3n2)C[C@@H]1C [Compound 355, (S)-1-(4-(4-((4-([1,2,4]triazolo[1,5-a]pyridin-7-yloxy)-3-methylphenyl)amino)pyrido[3,2-d]pyrimidin-6-yl)-2-methyl-1,4-diazepan-1-yl)prop-2-en-1-one] |  | ≥ 1000 nM | 100 to 500 nM
Cc1cc(Nc2ncnc3cnc(N4CCN(C(=O)/C=C/CN5CCCC5)CC4)nc23)ccc1Oc1ccc2c(c1)nnn2C [Compound 52, (E)-1-(4-(8-((3-methyl-4-((1-methyl-1H-benzo[d][1,2,3]triazol-5-yl)oxy)phenyl)amino)pyrimido [5,4-d]pyrimidin-2-yl)piperazin-1-y169yrrolidineolidin-1-yl)but-2-en-1-one] |  | < 50 nM | 50 to 100 nM
